{
  "source": "patent US5726319A",
  "about": "“Biphenyl substituted dipeptide analogs promote release of growth hormone” (Merck & Co., Inc., priority 1995, dated 1998)",
  "data": [
    {"system": "rat pituitary cells", "experiment": "growth hormone secretion in rat pituitary cell cultures (GH release, RIA)", "assay_type": "cell-based", "details": "GH release from cultured rat anterior pituitary cells, 15 min incubation at 37° C., rat GH measured by double antibody RIA; read-out: ED50 (the source's name)", "method": "The bioassay employed for the determination of growth hormone secretion in rat pituitary cell cultures has been previously described--Cheng, K.; Chan, W. W.-S; Barreto, A.; Convey, E. M.; Smith, R. G. Endocrinology 124: 2791-2798 (1989)--and is summarized here: The Wistar male rats (150-200 grams) were obtained from Charles River Laboratories (Wilmington, Mass). Rats were maintained at a constant temperature (25° C.) on a 14-hr light, 10-hr dark cycle. Rat chow and water were available ad libitum. The animals were sacrificed by decapitation and anterior lobes of the pituitary quickly removed. Rat pituitary cells were isolated from pituitaries by enzymatic digestion with 0.2% collagenase and 0.2% hyaluronidase in Hank's Balanced Salt Solution. For culture, the cells were suspended in culture medium and adjusted to 1.5×10^5 cells/ml, and 1.0 ml of this suspension was placed in each well of a 24-well tray (Costar, Cambridge, Mass.). Cells were maintained in a humidified 5% CO2 -95% air atmosphere at 37° C. for 3 to 4 days. The culture medium consisted of DMEM containing 0.37% NaHCO3, 10% horse serum, 2.5% fetal bovine serum, 1% non-essential amino acids, 1% glutamine, 1% nystatin, and 0.1% gentamycin. On the day of an experiment, cells were washed twice 11/2 hrs prior to and once more immediately before the start of the experiment with the above culture medium containing 25 mM HEPES, pH 7.4. GH release was initiated by adding 1 ml of fresh medium containing test agents to each well in quadruplicate. Incubation was carded out at 37° C. for 15 min. After incubation, medium was removed and centrifuged at 2,000×g for 15 min to remove any cellular material. The supernatant fluid was removed and assayed for GH content. Rat GH in culture medium was measured by a double antibody RIA procedure using materials obtained from Dr. A. F. Parlow (Harbor-UCLA medical Center, Torrance, Calif.) and expressed in terms of the standard rat GH RP-2. ED50 values for test compounds were computed by fitting a four-parameter logistic function to the dose-response curve. Least squares estimates of the four-parameter logistic function coefficients and their variances were derived using the iterative algorithm described by Bates and Watts.", "units": {"EC50": "nM"}, "values": [
      {"compound": "CC(C)(N)C(=O)N[C@H](COCc1ccccc1)C(=O)NCc1ccc(-c2ccccc2NC(=O)NCCO)cc1.O=C(O)C(F)(F)F", "note": "[Example 25, (R)-α-[(2-Amino-2-methyl-1-oxopropyl)amino]-N-[[(2'-[(2-hydroxyethylamino)carbonyl]amino][1,1'-biphenyl]-4-yl]-methyl]-3-[(phenylmethyl)oxy]propanamide, trifluoracetate]", "EC50": "> 500"},
      {"compound": "CC(C)(N)CC(=O)N[C@H](COCc1ccccc1)C(=O)NCc1ccc(-c2ccccc2NC(=O)NCCO)cc1.O=C(O)C(F)(F)F", "note": "[Example 26, (R)-α-[(3-Amino-3-methyl-1-oxobutyl)amino]-N-[[(2'-[(2-hydroxyethylamino)carbonyl]amino][1,1'-biphenyl]-4-yl]-methyl]-3-[(phenylmethyl)oxy]propanamide, trifluoracetate]", "EC50": "> 500"},
      {"compound": "CC(C)(N)C(=O)N[C@H](COCc1ccccc1)C(=O)NCc1ccc(-c2ccccc2-c2nnn[nH]2)cc1.O=C(O)C(F)(F)F", "note": "[Example 27, (R)-α-[(2-Amino-2-methyl-1-oxypropyl)amino]-N-[[2'-(1H-tetrazol-5-yl)-[1,1'-biphenyl]-4-yl]methyl]-3-[(phenylmethyl)oxy]propanamide, trifluoracetate]", "EC50": "> 500"},
      {"compound": "CC(C)(N)CC(=O)N[C@H](COCc1ccccc1)C(=O)NCc1ccc(-c2ccccc2-c2nnn[nH]2)cc1.O=C(O)C(F)(F)F", "note": "[Example 28, (R)-α-[(3-Amino-3-methyl-1-oxybutyl)amino]-N-[[2'-(1H-tetrazol-5-yl)-[1,1'-biphenyl]-4-yl]methyl]-3-[(phenylmethyl)oxy]propanamide, trifluoracetate]", "EC50": "> 500"},
      {"compound": "COc1ccc(N(Cc2ccc(-c3ccccc3-c3nnn[nH]3)cc2)C(=O)[C@@H](CCc2ccccc2)NC(=O)C(C)(C)N)cc1.O=C(O)C(F)(F)F", "note": "[Example 29, (R)-α-[(2-Amino-2-methyl-1-oxypropyl)amino]-N-(4-methoxyphenyl)-N-[[2'-(1H-tetrazol-5-yl)-[1,1'-biphenyl]-4-yl]methyl]benzenebutanamide, trifluoroacetate]", "EC50": "> 500"},
      {"compound": "COc1ccc(N(Cc2ccc(-c3ccccc3-c3nnn[nH]3)cc2)C(=O)[C@@H](CCc2ccccc2)NC(=O)CC(C)(C)N)cc1.O=C(O)C(F)(F)F", "note": "[Example 30, (R)-α-[(3-Amino-3-methyl-1-oxybutyl)amino]-N-(4-methoxyphenyl)-N-[[2'-(1H-tetrazol-5-yl)-[1,1'-biphenyl]-4-yl]methyl]-benzenebutanamide, trifluoroacetate]", "EC50": "> 500"},
      {"compound": "CC(C)(N)C(=O)N[C@H](CCc1ccccc1)C(=O)N(Cc1ccc(-c2ccccc2-c2nnn[nH]2)cc1)c1ccc(O)cc1.O=C(O)C(F)(F)F", "note": "[Example 31, (R)-α-[(2-Amino-2-methyl-1-oxypropyl)amino]-N-(4-hydroxyphenyl)-N-[[2'-(1H-tetrazol-5-yl)-[1,1'-biphenyl]-4-yl]methyl]benzene-butanamide, trifluoroacetate]", "EC50": "> 500"},
      {"compound": "CNC(=O)Nc1ccccc1-c1ccc(N(C)C(=O)[C@@H](CCc2ccccc2)NC(=O)C(C)(C)N)cc1.O=C(O)C(F)(F)F", "note": "[Example 33]", "EC50": "> 500"},
      {"compound": "(R)-α-[(2-Amino-2-methyl)-1-oxopropyl]amino-N -methyl-N -[2'-(1H -tetrazol-5-yl)[1,1'-biphenyl]-4-yl]butanamide, trifluoroacetate [Example 34]", "EC50": "< 500"},
      {"compound": "(R)-α-[(2-Amino-2-methyl)-1-oxopropyl]amino-N-methyl-N-[(2'-[[(methylamino)carbonyl]amino)methyl][1,1'-biphenyl]-4-yl]benzenebutanamide, trifluoroacetate [Example 35]", "EC50": "< 500"}
    ]}
  ]
}
